Reference: patent US8728797B2, “Yeast membrane protein expression system and its application in drug screening” (priority 2001, dated 2014)
≈ marks a conversion by molar mass, not a printed value. Marks after values point to notes of the source that are not given here.

Assays:
Cdr1p ATPase = experiment: Oligomycin sensitive ATPase/NTPase activity of AD1002 plasma membranes; format: biochemical, C. albicans; conditions: ratio of inhibitory concentrations Cdr1p/Pdr5p
Description: Membrane fractions were isolated from S. cerevisiae AD1002 (▪) or parental AD1-8u^− cells (●). ATPase assays were carried out at 30° C. for 30 min, as described in Materials and methods for Example 2. The oligomycin-sensitive activity was determined as the difference in ATPase activity in the presence and absence of 20 μM oligomycin. […] The results are the means (+/−SD) of four determinations carried out on two membrane preparations.
(B) Inhibition profile with KN20 on the oligomycin-sensitive Cdr1p ATPase activity of plasma membranes from AD1002 minus the oligomycin-sensitive ATPase activity of plasma membranes from the isogenic AD1-8u^− strain.
Yeast were grown in YEPD, pH 5.5 at 30° C. until they reached late-exponential phase of growth (OD600 nm=7), washed twice in ice-cold distilled water, and incubated on ice for 30 min to minimize glucose-stimulated Pma1p activity. Cells were resuspended in homogenising medium (50 mM Tris pH 7.5, 2 mM EDTA and 1 mM phenylmethylsulfonyl fluoride) and disrupted using a Braun Homogeniser. Cell debris and unbroken cells were removed by centrifuging at 2,000×g at 4° C. for 10 min. A crude membrane fraction was isolated from the cell-free supernatant by centrifuging at 30,000×g at 4° C. for 45 min. Plasma membranes were prepared by centrifugation of the supernatant obtained after selective precipitation of mitochondria at pH 5.2 as described previously (Goffeau, A. and Dufour, J. P., 1988). The plasma membranes were resuspended in 10 mM Tris pH 7.0, 0.5 mM EDTA and 20% [v/v] glycerol and stored at −80° C. Protein was determined using a micro-Bradford (Bio-Rad Laboratories, Hercules, Calif. [Bradford, M. M., 1976]) assay with gamma-globulin as standard. Nucleotide triphosphatase activity was measured by incubating the plasma membrane fractions (10 μg) at 30° C. in a final volume of 120 μl containing 6 mM NTP, 7 mM MgSO4 in 59 mM MES-Tris buffer pH 6.0-8.0. To eliminate possible contributions from nonspecific phosphatases, vacuolar, or mitochondrial ATPases, 0.2 mM ammonium molybdate, 50 mM KNO3 and 10 mM NaN3, respectively, were included in assays (Monk B C, et al, 1991). Other ATPase inhibitors (20 μM oligomycin, 20 μM aurovertin B or 100 μM vanadate were added to the reaction where indicated. After 30 min the reaction was stopped by adding 130 μl of a solution containing 1% (w/v) SDS, 0.6 M H2SO4, 1.2% (w/v) ammonium molybdate and 1.6% (w/v) ascorbic acid. Inorganic phosphate released from NTPs was measured at 750 nm after 10 min incubation at room temperature.

C. parapsilosis 425 = experiment: Checkerboard chemosensitisation to fluconazole; format: cell-based; conditions: KN20 0-80 μM and FCZ 32 μg/ml tested, no chemosensitisation
Description: Checkerboard drug susceptibility assays were used to measure the chemosensitisation of cells to fluconazole by test compounds such as Pdr5p inhibitors. […] Cell inocula, growth conditions and the optical determination of growth were identical to standard liquid MIC determinations. The assays were conducted in 6 by 6 well arrays centred in a 96 well microtitre plate using buffered CSM-URA medium at pH 7.0, with fluconazole and/or peptide included in each well at the indicated concentration.

AD-BEN^R (Ben^Rp) = experiment: Disk diffusion assay, AD-BEN^R; format: cell-based, S. cerevisiae; conditions: AD-pABC as negative control, 30° C., 48 h
Description: (§1) The cells were spread on CSM-agar plates and exposed to the drugs or chemicals applied to filter disks and incubated at 30° C. for 48 h. The amounts of individual drugs are given in the Materials and Methods section of Example 3. Rhodamine 6G and rhodamine 123 were dissolved in ethanol and the other antifungals were dissolved in DMSO.
(§2) Drug susceptibility was measured using disk assays on CSM-URA plates (containing 1.5% w/v agar). Yeast cells (200 μl ml of 5×10^6 cells/ml) were spread on the plates. 10 μl of drug solution or solvent control were spotted onto sterile Whatman paper disks on the pre-spread plates. The following amounts (nmoles) of drugs were applied to individual disks: fluconazole, 633 (Pfizer Ltd., Sandwich, Kent, United Kingdom); itraconazole, 0.23 (Janssen); miconazole, 0.42 (Janssen); cycloheximide, 0.71 (Sigma); rhodamine 6G, 100 (Sigma, Penrose, Auckland, N. Z.); rhodamine 123, 125 (Sigma); cerulenin 4.5 (Sigma); 5-flucytosine 100 (Sigma); amphotericin B, 97 (E. R. Squibb & Sons, Princeton, N.J.); nystatin 65 (Sigma). Agar plates were incubated at 30° C. for 48 h or until clear growth inhibition zones were visible.

AD-CDR1 (Cdr1p) [1] = experiment: Disk diffusion assay, AD-CDR1; format: cell-based, S. cerevisiae; conditions: AD-pABC as negative control, 30° C., 48 h
Description: as §1, §2

AD-CDR1 (Cdr1p) [2] = experiment: MIC in liquid microdilution assay, AD-CDR1; format: cell-based, S. cerevisiae; conditions: Saccharomyces cerevisiae
Description: (§3) The MICs of antifungal agents for S. cerevisiae cells were determined by a microdilution test based on the macrodilution reference method of the National Committee for Clinical Laboratory Standards. Cells (10 μl cell suspension, 2×10^5 cells/ml) were inoculated into 90 μl CSM-URA, buffered with 10 mM 2-(N-morpholino)ethanesulfonic acid (MES) and 18 mM N-2-hydroxyethylpiperazine-N′-2-ethanesulfonic acid (HEPES), pH 7.0 and containing 0.67% (w/v) yeast nitrogen base (YNB) in microtitre plate wells. For the uracil-requiring strain AD1-8u^− the medium was supplemented with 0.02% (w/v) uridine. The wells contained, in […], doubling dilutions of antifungal agents (final concentrations: fluconazole, 40-0.078 μg/ml; itraconazole and ketoconazole, 8-0.016 μg/ml). The microtitre plates were incubated at 30° C. for 48 h with shaking and then the growth of cells in individual wells (OD590) was measured with a microplate reader (EL 340, Bio-Tek, Winooski, Vt.). The MIC80 was the lowest concentration of drug that inhibited growth yield by at least 80% compared to a no-drug control.

AD-PDR5 (Pdr5p) = experiment: Disk diffusion assay, AD-PDR5; format: cell-based, S. cerevisiae; conditions: AD-pABC as negative control, 30° C., 48 h
Description: as §1, §2

[3] = system: selected respiratory competent construct expressing Cdr1p; experiment: MIC, corrected Cdr1p construct; format: cell-based, S. cerevisiae; conditions: Saccharomyces cerevisiae; construct corrected with linear PCR fragment
Description: as §3

Compound	Cdr1p ATPase inhibition concentration relative to Pdr5p ATPase (Cdr1p ATPase)	Fold-sensitisation by KN20 (For FCZ MIC) (C. parapsilosis 425)	resistance/sensitivity in disk diffusion assay (AD-BEN^R (Ben^Rp))	resistance/sensitivity in disk diffusion assay (AD-CDR1 (Cdr1p) [1])	MIC (AD-CDR1 (Cdr1p) [2])	resistance/sensitivity in disk diffusion assay (AD-PDR5 (Pdr5p))	MIC [3]
D-octapeptide NH2-Asn-Trp-Trp-Lys-Val-Arg-Arg-Arg-CONH2 with a single 4-methoxy-2,3,6-trimethylbenzenesulphonyl (Mtr) substituent on one tryptophan sidechain; Pdr5p inhibitor [KN20]	2.7 fold	1^b fold					
OC(Cn1cncn1)(Cn1cncn1)c1ccc(F)cc1F [fluconazole]			resistant	resistances	400 µg/mL (≈ 1310 µM)	resistances	400 µg/mL (≈ 1310 µM)
